{"source": "patent US20220288051A1", "about": "“METHODS FOR TREATING CANCER USING SERIAL ADMINISTRATION OF E3 UBIQUITIN LIGASE DEGRADERS” (Dana-Farber Cancer Institute, Inc., priority 2019, published 2022)", "key": {"MM.1S-Cas9+ cells": {"test_system": "MM.1S-Cas9+ cells", "assay": "Genome-scale CRISPR/Cas9 gene editing (LOF) resistance screens", "format": "cell-based, human", "settings": "for sgRNA enrichment in resistant cells, long-term screen: long-term treatment, NGS of sgRNAs; for sgRNA enrichment, extended degronimid treatment: Thal-SNS-032-resistant MM.1S cells, additional 2 weeks", "procedure": "MM.1S cells transduced with lentiviral construct for SpCas9 were kindly provided from Quinlan Sievers (Ebert Lab, BWH/DFCI). MM.1S cells were also transduced with lentiviral construct for dCas9-VP64 (purchased from Addgene).\nii. Lentiviral transductions with sgRNA libraries: For the screen with the GECKOv2 sgRNA library, tumor cell transductions were performed in batches of 8×10^7 cells per sub-library for each replicate. Cells were incubated for 16 hrs in cell medium containing polybrene (2 μg/mL; Santa Cruz Biotechnology), 10 mM HEPES (pH 7.4) (Sigma-Aldrich) and viral prep (4 mL) diluted to achieve an MOI of 0.4. After the end of the incubation with the viral preps, cells were washed and incubated for an additional day. Transduced cells were cultured at an initial density of 1×10^6 cells/mL and were treated with puromycin (1 μg/mL) for up to 14 days immediately after transduction. After puromycin selection, MM.1S-Cas9^+ cells transduced with each GeCKOv2 sublibrary were plated at 60×10^6 cells per flask (T175, 100 mL) to enable coverage of ˜1000× and were sub-cultured at four to five-day intervals to prevent confluence. At each passage, cells were harvested, washed with PBS (Corning, N.Y.), pelleted (5000 rpm, 5 min, 4° C.) and frozen as cell pellets (−80° C.) for next generation sequencing, and also replated at 60×10^6 cells to maintain 1000× coverage.\nFor the genome-scale screens with the Brunello sgRNA library, tumor cell transductions were performed in batches of 5×10^7 cells per library for six replicates. Cells were incubated (18 h) in cell medium containing polybrene (5 μg/mL; Santa Cruz Biotechnology), 10 mM HEPES (pH 7.4) (Sigma-Aldrich) and viral prep (30 mL) diluted 1:1. Transduced cells were cultured at an initial density of 1×10^6 cells/mL and were treated with puromycin (1 μg/mL) for up to 5 days additional two days from transduction. After stable transduction, pooled MM.1S cells were plated at 40×10^6 cells per flask (T175, 100 mL) to enable coverage of 500× and were sub-cultured at three- to four day intervals to prevent confluence. At each passage, cells were harvested, washed with PBS (Corning), pelleted (5000 rpm, 5 min, 4° C.) and frozen as cell pellets (−80° C.) for next generation sequencing, and also replated at 40×10^6 cells (˜500× coverage).\niii. […] Following treatments, all cells were serially cultured without drug and allowed to regrow for as long as required to enable reseeding (60×10^6 cells per flask, 100 mL) and retreatment with individual drugs while maintaining ˜1000× coverage throughout. Concomitant with retreatment, remaining cells were frozen (−80° C.; 20% FBS/DMSO) for later analysis or assessed for drug resistance/sensitivity using CTG assays. Between treatments, and in order to maintain the health of cultures, dead cells were periodically removed using Ficoll centrifugation (1,500 rpm for 10-20 min). For all CRISPR drug treatment experiments, aliquots of MM.1S-Cas9+ cells transduced with the GeCKO(Sanjana et al., 2014; Shalem et al., 2014) or Brunello (Doench et al., 2016) sgRNA libraries were frozen immediately prior to experimentation to determine the baseline distribution of sgRNAs in the cell population.\nFor “long-term” treatment screens with Thal-SNS-032-, ARV-771- and MZ-1-resistant cells, we continuously treated MM.1S-Cas9+ cells (40×10^6, —500× coverage) transduced with the Brunello sgRNA library (4 weeks post-puromycin selection) with either each compound's (IC20) or vehicle control. Cells were serially passaged every 3-4 days to prevent confluence, each time replating at ˜500× coverage (100 mL) at the same time replenishing each compound or vehicle. Drug treatments were paused if cell numbers fell below 10×10^6 per flask, allowing cells to recover and regrow, and treatments were resumed at a lower concentration when cell numbers reached 40×10^6. At each passage, cells were assayed for drug sensitivity/resistance using CTG. […]"}, "MM.1S Cas9+ cells": {"test_system": "MM.1S Cas9+ cells", "assay": "Dose-response assay of cells with individual sgRNA knock-outs, CTG", "format": "cell-based, human", "procedure": "Non-targeting control sgRNAs and COPS7B sgRNAs were from GeCKOv2. Four sgRNAs were generated per each gene, except from COPS7B, for which 6 sgRNAs were available (Table S2). All sgRNAs were synthesized by CustomArray Inc (Bothell, Wash.). Cloning was performed according to the protocol published by Zhang et al. (media.addgene.org/cms/filer_public/4f/ab/4fabc269-56e2-4ba5-92bd-09dc89c1e862/zhang_lenticrisprv2_and_lentiguide_oligo_cloning_protocol_1.pdf) using a pHKO9 vector. Briefly, to clone the sgRNA guide sequence, plasmids were digested with BsmBI (New England Biolabs, Ipswich, Mass.) at 55° C. for 1 hour. Oligonucleotides for each sgRNA guide sequence were annealed and phosphorylated using T4 Ligation Buffer and T4 polynucleotide kinase (New England Biolabs) at 37° C. for 30 minutes and then annealed by heating to 95° C. for 5 minutes and cooling to 25° C. at 1.5° C./minute. Using T4 ligation buffer and T4 ligase (New England Biolabs), annealed oligos were ligated into gel purified vectors (Qiagen) at 65° C. for 10 minutes. 2.5 ug of the ligation product were transformed in 30 uL E. coli electrocompetent cells (Lucigen E.cloni 10 G ELITE PLUS, Invitrogen). Subsequently, 500 uL of transformed cells were plated on LB Agar-AmpR (ThermoFisher Scientific) and incubated overnight at 37° C. Three colonies per plate were then picked and inoculated in a mini-prep culture (Qiagen). The product was then digested with BsmBI and XhoI (New England Biolabs) at 37° C. for 1 h and compared to the uncut control on 1% agarose gel. One out of three colonies (10 uL) was then precultured in 3 mL LB Broth-AmpR and shaken at 37° C. for 6 h. Afterwards it was transferred to a 250 mL LB Broth-AmpR flask and incubated overnight at 37° C. Each culture was then inoculated into a maxiprep culture (Qiagen).\nAlso, CRBN, VHL, TCEBJ, TCEB2, UBE2R2 and FBXW2 sgRNA are selected from Brunello library and cloned using pLVX-hyg-sgRNA1 Vector system (Takara Bio USA, CA) according to the manufacturer's manual. b(takarabio.com/assets/documents/User %20Manual/Lenti-X_CRISPR-Cas9_System_User_Manual_121316.pdf)\nii. Lentiviral transductions with constructs for individual sgRNAs: 500×10^3 to 1×10^6 MM.1S Cas9 cells were plated in 50 uL of complete RPMI1640 medium per well in a 24-well plate, and additional 100 uL of complete RPMI1640 medium were added to cover the well completely. Cells were incubated in cell medium containing polybrene (5 to 8 μg/mL; Santa Cruz Biotechnology), and viral prep. 24 hours after addition of viral preps, media were changed and, after another 48 h, puromycin selection (1 to 2 ug/ml per well) was started. After 7 days of puromycin selection, transduced MM.1S Cas9+ cells were collected and expanded in T75 flasks.\niii. […] In the case of Thal-SNS-032 or ARV771, cells are plated 384-well plate and treated each concentration described at figure and viability assays were performed at 72 hrs."}}, "note": "“Also recorded” adds a separate entry of the source."}
{"smiles": "Cc1ncsc1-c1ccc([C@H](C)NC(=O)[C@@H]2C[C@@H](O)CN2C(=O)[C@@H](NC(=O)COCCCOCCNC(=O)C[C@@H]2N=C(c3ccc(Cl)cc3)c3c(sc(C)c3C)-n3c(C)nnc32)C(C)(C)C)cc1", "note": "[ARV-771]", "values": [{"measurement": "sgRNA enrichment in resistant cells, long-term screen", "setting": "MM.1S-Cas9+ cells", "result": "enrichment of sgRNAs for CUL2, VHL itself"}, {"measurement": "activity against cells with sgRNAs against CRBN", "setting": "MM.1S Cas9+ cells; MM.1S cells", "result": "no significant changes in ARV771 activity"}, {"measurement": "response of cells with sgRNAs against COPS7B or COPS8", "setting": "MM.1S Cas9+ cells; compared to parental MM.1S cells", "result": "decreased response"}]}
{"smiles": "CC(C)(C)c1cnc(CSc2cnc(NC(=O)C3CCN(CC(=O)NCCOCCOCCOCCNc4cccc5c4C(=O)N(C4CCC(=O)NC4=O)C5=O)CC3)s2)o1", "note": "(stereo not drawn) [Thal-SNS-032]", "values": [{"measurement": "sgRNA enrichment, extended degronimid treatment", "setting": "MM.1S-Cas9+ cells", "result": "CRBN is the only gene which exhibits enrichment of its sgRNAs; also recorded: further enrichment of MM cells containing sgRNA against CRBN"}, {"measurement": "sgRNA enrichment in resistant cells, long-term screen", "setting": "MM.1S-Cas9+ cells", "result": "pronounced enrichment of sgRNAs for CRBN itself, and COP9 signalosome complex genes"}, {"measurement": "Thal-SNS-032 responsiveness after individual sgRNAs", "setting": "MM.1S Cas9+ cells; sgRNAs for COPS7B, COPS2, DDB1 or COPS8", "result": "decrease the Thal-SNS-032 responsiveness"}]}
{"smiles": "Cc1sc2c(c1C)C(c1ccc(Cl)cc1)=N[C@@H](CC(=O)NCCCCCCCCNC(=O)COc1cccc3c1C(=O)N(C1CCC(=O)NC1=O)C3=O)c1nnc(C)n1-2", "note": "(stereo partly drawn) [dBET6]", "values": [{"measurement": "sgRNA enrichment, extended degronimid treatment", "setting": "MM.1S-Cas9+ cells", "result": "CRBN is the only gene which exhibits enrichment of its sgRNAs; also recorded: further enrichment of MM cells containing sgRNA against CRBN"}, {"measurement": "sgRNA enrichment in resistant cells, long-term screen", "setting": "MM.1S-Cas9+ cells", "result": "significant enrichment of sgRNAs targeting CRBN itself, as well as other components or regulators of the cullin-RING ligase (CRL) complex"}, {"measurement": "response to dBET6 after individual sgRNAs", "setting": "MM.1S Cas9+ cells; sgRNAs for COPS7B, COPS8 or CRBN", "result": "decreases the response of MM.1S cells to dBET6"}]}
